Source: US8148531B2 (Chroma Therapeutics Ltd., priority 2005, dated 2012)

Key:
Format in all cases: cell-based
HUT cell line = experiment: Cell inhibition assay (SRB cell viability), HUT; details: IC50 range class, 72 h, read-out: Inhibitor Activity vs HUT cell line
Procedure: (§1) The corresponding cancer cell lines (U937, HCT 116 and HUT) growing in log phase were harvested and seeded at 1000 cells/well (200 ul final volume) into 96-well tissue culture plates. Following 24 h of cell growth cells were treated with compounds (final concentration of 20 uM). Plates were then re-incubated for a further 72 h before a sulphorhodamine B (SRB) cell viability assay was conducted according to Skehan 1990 J Natl Canc Inst 82, 1107-1112.
(§2) Data were expressed as a percentage inhibition of the control, measured in the absence of inhibitor, as follows: — % inhibition=100−((S^i/S^o)×100) where S^i is the signal in the presence of inhibitor and S^o is the signal in the presence of DMSO.
(§3) IC50 values were determined by non-linear regression analysis, after fitting the results of eight data points to the equation for sigmoidal dose response with variable slope (% activity against log concentration of compound), using Graphpad Prism software.

U937 cell line = experiment: Cell inhibition assay (SRB cell viability), U937; details: Homo sapiens, U-937, IC50 range class, 72 h, read-out: Inhibitor Activity vs U937 cell line
Procedure: as §1, §2, §3

HCT 116 cell line = experiment: Cell inhibition assay (SRB cell viability), HCT 116; details: Homo sapiens, IC50 range class, 72 h, read-out: Inhibitor Activity vs HCT 116 cell line
Procedure: as §1, §2, §3

Row | SMILES | IC50 (HUT cell line) [µM] | IC50 (U937 cell line) [µM] | IC50 (HCT 116 cell line) [µM]
1 | COc1cc2c(Oc3ccc(NC(=O)c4ccc(F)cc4F)cc3)ccnc2cc1OCC[C@H](N)C(=O)OC1CCCC1 [Example 65, (S)-2-Amino-4-{4-[4-(2,4-difluoro-benzoylamino)-phenoxy]-6-methoxy-quinolin-7-yloxy}-butyric acid cyclopentyl ester] | < 1 | < 1 | < 1
2 | COc1cc2c(Oc3ccc(NC(=O)c4ccc(Cl)cc4)cc3)ccnc2cc1OCC[C@H](N)C(=O)OC1CCCC1 [Example 66, (S)-2-Amino-4-{4-[4-(4-chloro-benzoylamino)-phenoxy]-6-methoxy-quinolin-7-yloxy}-butyric acid cyclopentyl ester] | < 1 | < 1 | < 1
3 | COc1cc2c(Oc3ccc(NC(=O)c4cc(C(F)(F)F)ccc4F)cc3)ccnc2cc1OCC[C@H](N)C(=O)OC1CCCC1 [Example 68, (S)-2-Amino-4-{4-[4-(2-fluoro-5-trifluoromethyl-benzoylamino)-phenoxy]-6-methoxy-quinolin-7-yloxy}-butyric acid cyclopentyl ester] | < 1 | < 1 | < 1
4 | COc1cc2c(Oc3ccc(NC(=O)c4ccc(OC(F)(F)F)cc4)cc3)ccnc2cc1OCC[C@H](N)C(=O)OC1CCCC1 [Example 70, (S)-2-Amino-4-{6-methoxy-4-[4-(4-trifluoromethoxy-benzoylamino)-phenoxy]-quinolin-7-yloxy}-butyric acid cyclopentyl ester] | < 1 | < 1 | < 1
5 | COc1cc2c(Oc3ccc(NC(=O)C4=C(C)c5ccccc5C4)cc3)ccnc2cc1OCC[C@H](N)C(=O)OC1CCCC1 [Example 72, (S)-2-Amino-4-(6-methoxy-4-{4-[(3-methyl-1H-indene-2-carbonyl)-amino]-phenoxy}-quinolin-7-yloxy)-butyric acid cyclopentyl ester] | < 1 | < 1 | < 1
6 | COc1cc2c(Oc3ccc(NS(=O)(=O)c4ccccc4)cc3)ccnc2cc1OCC[C@H](N)C(=O)OC1CCCC1 [Example 73, (S)-2-Amino-4-[4-(4-benzenesulfonylamino-phenoxy)-6-methoxy-quinolin-7-yloxy]-butyric acid cyclopentyl ester] | 1 to 5 | 1 to 5 | > 5
7 | COc1cc2c(Oc3ccc(NC(=O)c4cccs4)cc3)ccnc2cc1OCC[C@H](N)C(=O)OC1CCCC1 [Example 75, (S)-2-Amino-4-(6-methoxy-4-{4-[(thiophene-2-carbonyl)-amino]-phenoxy}-quinolin-7-yloxy)-butyric acid cyclopentyl ester] | < 1 | < 1 | < 1
8 | COc1cc2c(Oc3ccc(CC(=O)Nc4ccc(C(F)(F)F)cc4)cc3)ccnc2cc1OCC[C@H](N)C(=O)OC1CCCC1 [Example 79, (S)-2-Amino-4-(6-methoxy-4-{4-[(4-trifluoromethyl-phenylcarbamoyl)-methyl]-phenoxy}-quinolin-7-yloxy)-butyric acid cyclopentyl ester] | < 1 | < 1 | < 1
9 | COc1cc2c(Oc3ccc(CC(=O)Nc4ccccc4)cc3)ccnc2cc1OCC[C@H](N)C(=O)OC1CCCC1 [Example 80, (S)-2-Amino-4-[6-methoxy-4-(4-phenylcarbamoylmethyl-phenoxy)-quinolin-7-yloxy]-butyric acid cyclopentyl ester] | < 1 | < 1 | < 1
10 | COc1cc2c(Oc3ccc(CC(=O)Nc4ccccc4F)cc3)ccnc2cc1OCC[C@H](N)C(=O)OC1CCCC1 [Example 82, (S)-2-Amino-4-(4-{4-[(2-fluoro-phenylcarbamoyl)-methyl]-phenoxy}-6-methoxy-quinolin-7-yloxy)-butyric acid cyclopentyl ester] | < 1 | < 1 | < 1
11 | COc1cc2c(Oc3ccc(CC(=O)Nc4cccc(F)c4)cc3)ccnc2cc1OCC[C@H](N)C(=O)OC1CCCC1 [Example 84, (S)-2-Amino-4-(4-{4-[(3-fluoro-phenylcarbamoyl)-methyl]-phenoxy}-6-methoxy-quinolin-7-yloxy)-butyric acid cyclopentyl ester] | < 1 | < 1 | < 1
12 | COc1cc2c(Oc3ccc(CC(=O)Nc4ccc(F)cc4)cc3)ccnc2cc1OCC[C@H](N)C(=O)OC1CCCC1 [Example 86, (S)-2-Amino-4-(4-{4-[(4-fluoro-phenylcarbamoyl)-methyl]-phenoxy}-6-methoxy-quinolin-7-yloxy)-butyric acid cyclopentyl ester] | < 1 | < 1 | < 1
13 | COc1cc2c(Oc3ccc(CC(=O)Nc4ccc(F)cc4F)cc3)ccnc2cc1OCC[C@H](N)C(=O)OC1CCCC1 [Example 88, (S)-2-Amino-4-(4-{4-[(2,4-difluoro-phenylcarbamoyl)-methyl]-phenoxy}-6-methoxy-quinolin-7-yloxy)-butyric acid cyclopentyl ester] | < 1 | < 1 | < 1
14 | COc1ccc(NC(=O)Cc2ccc(Oc3ccnc4cc(OCC[C@H](N)C(=O)OC5CCCC5)c(OC)cc34)cc2)cc1 [Example 90, (S)-2-Amino-4-(6-methoxy-4-{4-[(4-methoxy-phenylcarbamoyl)-methyl]-phenoxy}-quinolin-7-yloxy)-butyric acid cyclopentyl ester] | < 1 | < 1 | < 1
15 | COc1cc2c(Oc3ccc(-c4noc(-c5ccccc5)n4)cc3)ccnc2cc1OCC[C@H](N)C(=O)OC1CCCC1 [Example 92, (S)-2-Amino-4-{6-methoxy-4-[4-(5-phenyl-[1,2,4]oxadiazol-3-yl)-phenoxy]-quinolin-7-yloxy}-butyric acid cyclopentyl ester] | > 5 | > 5 | > 5
16 | COc1cc2c(Oc3ccc(NC(=O)Nc4ccc5c(c4)CCC5)cc3)ccnc2cc1OCC[C@H](N)C(=O)OC1CCCC1 [Example 97, (S)-2-Amino-4-{4-[4-(3-indan-5-yl-ureido)-phenoxy]-6-methoxy-quinolin-7-yloxy}-butyric acid cyclopentyl ester] | < 1 | < 1 | < 1
17 | COc1cc2c(Oc3ccc(NC(=O)c4ccc(C(F)(F)F)cc4)cc3)ccnc2cc1OCC[C@@H](N)C(=O)OC1CCCC1 [Example 103, (R)-2-Amino-4-{6-methoxy-4-[4-(4-trifluoromethyl-benzoylamino)-phenoxy]-quinolin-7-yloxy}-butyric acid cyclopentyl ester] | < 1 | < 1 | < 1
18 | COc1cc2c(Oc3ccc(NC(=O)Nc4ccc(C(F)(F)F)cc4)cc3)ccnc2cc1OCC[C@@H](N)C(=O)OC1CCCC1 [Example 104, (R)-2-Amino-4-(6-methoxy-4-{4-[3-(4-trifluoromethyl-phenyl)-ureido]-phenoxy}-quinolin-7-yloxy)-butyric acid cyclopentyl ester] | < 1 | < 1 | < 1
19 | COc1cc2c(Oc3ccc(NC(=O)c4ccc(C(F)(F)F)cc4)cc3F)ccnc2cc1OCC[C@@H](N)C(=O)OC1CCCC1 [Example 106, (R)-2-Amino-4-{4-[2-fluoro-4-(4-trifluoromethyl-benzoylamino)-phenoxy]-6-methoxy-quinolin-7-yloxy}-butyric acid cyclopentyl ester] | < 1 | < 1 | < 1
20 | COc1cc2c(Oc3ccc(-c4noc(-c5ccccc5)n4)cc3)ccnc2cc1OCC[C@@H](N)C(=O)OC1CCCC1 [Example 107, (R)-2-Amino-4-{6-methoxy-4-[4-(5-phenyl-[1,2,4]oxadiazol-3-yl)-phenoxy]-quinolin-7-yloxy}-butyric acid cyclopentyl ester] | > 5 | > 5 | > 5
21 | COc1cc2c(Oc3ccc(NC(=O)Nc4ccc(C(F)(F)F)cc4)cc3F)ccnc2cc1OCC[C@@H](N)C(=O)OC1CCCC1 [Example 108, (R)-2-Amino-4-(4-{2-fluoro-4-[3-(4-trifluoromethyl-phenyl)-ureido]-phenoxy}-6-methoxy-quinolin-7-yloxy)-butyric acid cyclopentyl ester] | < 1 | < 1 | < 1
22 | COc1cc2c(Oc3ccc(NC(=O)Nc4ccc(C(F)(F)F)cc4)cc3)ccnc2cc1OCCC[C@H](N)C(=O)OC1CCCC1 [Example 113, (S)-2-Amino-5-(6-methoxy-4-{4-[3-(4-trifluoromethyl-phenyl)-ureido]-phenoxy}-quinolin-7-yloxy)-pentanoic acid cyclopentyl ester] | < 1 | < 1 | < 1
23 | COc1cc2c(Sc3ccc(NC(=O)Nc4ccc(C(F)(F)F)cc4)cc3)ccnc2cc1OCCC[C@@H](N)C(=O)OC1CCCC1 [Example 121, (R)-2-Amino-5-(6-methoxy-4-{4-[3-(4-trifluoromethyl-phenyl)-ureido]-phenylsulfanyl}-quinolin-7-yloxy)-pentanoic acid cyclopentyl ester] | < 1 | < 1 | < 1
